The values that follow are results of earlier work, collected in patent US7803735B2, “Hydroconversion processes employing multi-metallic catalysts and method for making thereof” (Chevron U.S.A. Inc., priority 2007, dated 2010).

Broadly, the LD50 is the dose expected to kill half of the subjects tested.

The test system of the series is rats. The conditions noted are these: single oral dose to rats; chelating agent (ligand) L.

With `O=CC(=O)O` [glyoxylic], the LD50 is 3000 mg/kg.
